Results published in patent EP4755886A1 (Chengdu Chipscreen Pharmaceutical Ltd., priority 2023, dated 2025).

What was measured:
wild-type HCT-116 cells = assay: Cell proliferation (MTS), wild-type HCT-116; assay type: cell-based; conditions: Homo sapiens, 240 h; wild-type HCT-116, 10 days with compound, MTS reading; read-out: IC50 HCT116 WT
Method in brief: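 Wild-type HCT-116 cells were seeded at 100 cells/well in McCoy's 5A/10% FBS. From day 1 they were treated with compound in 3-fold dilutions (initial 20 µM, 8 points) for 10 days at 37° C. Proliferation was read by MTS on day 11, and IC50 was obtained from a four-parameter logistic fit.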

MTAP^-/- HCT-116 cells = assay: Cell proliferation (MTS), MTAP-/- HCT-116; assay type: cell-based, human; conditions: for Selectivity: HCT116 WT IC50 relative to HCT116 MTAP-/- IC50; for IC50: Homo sapiens, 240 h, MTAP-/- HCT-116, 10 days with compound, MTS reading, read-out: IC50 HCT116 MTAP-/-
Method in brief: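 MTAP-/- (CRISPR/Cas9 biallelic knockout) or wild-type HCT-116 cells seeded at 100 cells/well, treated next day with 8-point 3-fold dilutions (top 20 µM) for 10 days at 37 °C, 5% CO2. Viability read by MTS; IC50 from four-parameter logistic fit of inhibition rate vs log concentration.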

| SMILES | IC50 (wild-type HCT-116 cells) [nM] | IC50 (MTAP^-/- HCT-116 cells) [nM] | Selectivity (MTAP^-/- HCT-116 cells) |
| --- | --- | --- | --- |
| CN(C(=O)c1cc2c(cc1F)nc(N)c1cnn(C)c12)C1COc2nc(C#Cc3cnn(C)c3)ccc21 (stereo not drawn) [Compound 33, 4-amino-7-fluoro-N,1-dimethyl-N-(6-((1-methyl-1H-pyrazol-4-yl)ethynyl)-2,3-dihydrofuro[2,3-b]pyridin-3-yl)-1H-pyrazolo[4,3-c]quinoline-8-carboxamide] | 567 | 4.4 | 129 |
| CCn1cc(C#Cc2ccc3c(c2)OCC3N(C)C(=O)c2ccc3nc(N)c4cnn(C)c4c3c2)cn1 (stereo not drawn) [Compound 20, 4-amino-N-(6-((1-ethyl-1H-pyrazol-4-yl)ethynyl)-2,3-dihydrobenzofuran-3-yl)-N, 1-dimethyl-1H-pyrazolo[4,3-c]quinoline-8-carboxamide] | 948 | 9.8 | 97 |
| CN(C(=O)c1cc2c(cc1F)nc(N)c1cnn(C)c12)[C@@H]1COc2cc(C#Cc3cccnc3)ccc21 [Compound 48A, (S)-4-amino-7-fluoro-N,1-dimethyl-N-(6-(pyridin-3-ylethynyl)-2,3-dihydrobenzof uran-3-yl)-1H-pyrazolo[4,3-c]quinoline-8-carboxamide] | 141 | 2 | 71 |
| CN(C(=O)c1cc2c(cc1F)nc(N)c1cnn(C)c12)[C@@H]1COc2cc(C#Cc3ccc4cnn(C)c4c3)ccc21 [Compound 60A, (5)-4-amino-7-fluoro-N,1-dimethyl-N-(6-((1-methyl-1H-indazol-6-yl)ethynyl)-2,3-dihydrobenzofuran-3-yl)-1H-pyrazolo[4,3-c]quinoline-8-carboxamide] | 486 | 8 | 61 |
| CN(C(=O)c1ccc2nc(N)c3c(c2c1)COC3)C1COc2cc(C#Cc3cnn(C)c3)ccc21 (racemic) [Compound 3, 4-amino-N-methyl-N-(6-((1-methyl-1H-pyrazol-4-yl)ethynyl)-2,3-dihydrobenzofuran-3-yl)-1,3-dihydrofuran[3,4-c]quinoline-8-carboxamide] | 4310 | 27 | 160 |
| Cc1ccncc1C#Cc1ccc2c(c1)OCC2N(C)C(=O)c1cc2c(cc1F)nc(N)c1cnn(C)c12 (stereo not drawn) [Compound 44, 4-amino-7-fluoro-N,1-dimethyl-N-(6-((4-methylpyridin-3-yl)ethynyl)-2,3-dihydrobenzofuran-3-yl)-1H-pyrazolo[4,3-c]quinoline-8-carboxamide] | 736 | 11 | 67 |

More lines, main results first:

| IC50 (wild-type HCT-116 cells) [nM] | IC50 (MTAP^-/- HCT-116 cells) [nM] | SMILES | Selectivity (MTAP^-/- HCT-116 cells) |
| --- | --- | --- | --- |
| 143 | 2.6 | CN(C(=O)c1cc2c(cc1F)nc(N)c1cnn(C)c12)[C@@H]1COc2cc(C#Cc3cnc4n3CCC4)ccc21 [Compound 84A, (S)-4-amino-N-(6-((6,7-dihydro-5H-pyrrolo[1,2-a]imidazol-3-yl)ethynyl)-2,3-dihydrobenzofuran-3-yl)-7-fluoro-N,1-dimethyl-1H-pyrazolo[4,3-c]quinoline-8-carbo xamide] | 55 |
| 141 | 2 | Cc1cncc(C#Cc2ccc3c(c2)OC[C@H]3N(C)C(=O)c2cc3c(cc2Cl)nc(N)c2cnn(C)c23)c1 [Compound 65A, (S)-4-amino-7-chloro-N,1-dimethyl-N-(6-((5-methylpyridin-3-yl)ethynyl)-2,3-dihydrobenzofuran-3-yl)-1H-pyrazolo[4,3-c]quinoline-8-carboxamide] | 71 |
| 1510 | 6 | CN(C(=O)c1cc2c3c(c(N)nc2cc1F)COC3)[C@@H]1COc2cc(C#Cc3cnc4n3CCCC4)ccc21 [Compound 80A, (S)-4-amino-7-fluoro-N-methyl-N-(6-((5,6,7,8-tetrahydroimidazo[1,2-a]pyridin-3-yl)ethynyl)-2,3-dihydrobenzofuran-3-yl)-1,3-dihydrofuro [3,4-c] quinoline-8-carbo xamide] | 251 |
